Results reported in patent publication US20240301319A1, “PERFUMING COMPOSITIONS” (FIRMNICH SA, priority 2017, published 2024).

Assays:
[1] = Volatility of perfuming compounds (Tables 4 to 10), with top/middle/bottom note type; format: physicochemical
Method: In some aspects, the first perfume accord comprises perfuming compounds having a volatility ranging from 70,000 to 100 μg/l in air. In some aspects, perfuming compounds having a volatility ranging from 70,000 to 100 μg/l in air are referred to as “top notes”.
In some aspects, the second perfume accord comprises perfuming compounds having a volatility ranging from 99 to 50 μg/l in air. In some aspects, perfuming compounds having a volatility ranging from 99 to 50 μg/l in air are referred to as “middle notes”.
In some aspects, the third perfume accord comprises perfuming compounds having a volatility ranging from 49 to 0.1 μg/l in air. In some aspects, perfuming compounds having a volatility ranging from 49 to 0.1 μg/l in air are referred to as “bottom notes”.
Tables 4 to 10 describe top, middle and bottom note perfuming compounds for watery, green, fruity, citrus, sweet, gourmand and woody notes respectively.

[2] = Odor threshold and odor value of perfuming compounds (Tables 4 to 10)
[3] = Table 6, perfuming compounds having a fruity note
[4] = Table 6, perfuming compounds having a fruity note, note type by volatility
[5] = note type (Top/Middle/Bottom) by volatility, perfuming compounds having a green note
[6] = perfuming compounds having a green note
[7] = Table 8, perfuming compounds having a sweet note
[8] = Table 7, citrus note, top, middle or bottom note
[9] = Table 8, perfuming compounds having a sweet note, note type by volatility

Row | Compound | Volatility [1, 3] [μg/l air] | Type [1, 4] | further results
1 | COC(=O)/C=C/c1ccccc1 [METHYL (E)-3-PHENYL-2-PROPENOATE] | 61.65 | Middle | Odor Threshold [2, 3]: 3.13E−03 μg/l air; Odor Value [2, 3]: 1.97E+04
2 | C=CC(O)CCCCC (racemic) [(+−)-1-octen-3-ol] | – | – | Type [1, 5]: Top; Volatility (μg/l air) [1, 6]: 3030.11 μg/l air; Odor Threshold (μg/l air) [2, 6]: 1.77E−03 μg/l air
3 | CC(=O)OCCC(C)CC(C)(C)C (stereo not drawn) [3,5,5-TRIMETHYLHEXYL ACETATE] | 1461.80 | TOP (perfuming compounds having a volatility ranging from 70,000 to 100 μg/l in air are referred to as “top notes”) | –
4 | CCCCCCCC1CCC(=O)O1 (racemic) [(+−)-5-heptyldihydro-2(3H)-furanone] | – | – | Odor Threshold [2, 3]: 3.16E−05 μg/l air; Odor Value [2, 3]: 1.16E+05; Odor Threshold [2, 7]: 3.16E−05 μg/l air; Odor Value [2, 7]: 1.16E+05; Odor Threshold ([2]; Table 9, gourmand note): 3.16E−05 μg/l air
5 | (+−)-(3E)-3-methyl-4-(2,6,6-trimethyl-2-cyclohexen-1-yl)-3-buten-2-one (A) + (+−)-(1E)-1-(2,6,6-trimethyl-2-cyclohexen-1-yl)-1-penten-3-one (B) | – | – | Type [1, 8]: Bottom
6 | CCOC(=O)/C(C)=C/C(C)C [ethyl (2E)-2,4-dimethyl-2-pentenoate] | 1618.37 | TOP (perfuming compounds having a volatility ranging from 70,000 to 100 μg/l in air are referred to as “top notes”) | –
7 | CC(C)=CCC/C(C)=C/CO | – | – | Volatility (μg/l air) ([1]; Table 7, citrus note): 89.88 μg/l air; Type [1, 8]: Middle
8 | CCCCCCC(C)=O [2-OCTANONE] | 6639.71 | TOP (perfuming compounds having a volatility ranging from 70,000 to 100 μg/l in air are referred to as “top notes”) | –
9 | C=C1CCCC(C)(C)C1C(=O)OC (racemic) | 1089.25 | TOP (perfuming compounds having a volatility ranging from 70,000 to 100 μg/l in air are referred to as “top notes”) | –
10 | CC(C)=CCCC(C)=CCO | – | – | Type [1, 8]: Middle
11 | CCCCCC1(C)CCC(C)(C)C1=O (racemic) | 265.42 | TOP (perfuming compounds having a volatility ranging from 70,000 to 100 μg/l in air are referred to as “top notes”) | –
12 | CCCCCCC1CCCC(=O)O1 (stereo not drawn) [6-hexyltetrahydro-2H-pyran-2-one] | 4.64 | Bottom | Volatility [1, 7]: 4.64 μg/l air; Type [1, 9]: Bottom; Volatility ([1]; Table 9, gourmand note): 4.64 μg/l air; Type ([1]; Table 9, perfuming compounds having a gourmand note, note type by volatility): Bottom
13 | CC1(C)CCC[C@]2(C)[C@H]3CCO[C@]3(C)CC[C@@H]12 | – | – | Type ([1]; Table 10, perfuming compounds having a woody note, note type by volatility): Bottom
14 | CCOC(=O)Cc1ccccc1 [ETHYL PHENYLACETATE] | 269.77 | TOP (perfuming compounds having a volatility ranging from 70,000 to 100 μg/l in air are referred to as “top notes”) | –
15 | CC1(C)C2CC[C@@]1(C)C(=O)C2 (single isomer, unassigned; (+)) | 555.04 | TOP (perfuming compounds having a volatility ranging from 70,000 to 100 μg/l in air are referred to as “top notes”) | –
16 | CC/C=C\C[C@H]1C(=O)CC[C@@H]1CC(=O)OC (racemic) | 1.59 | Bottom | –
17 | CC(=O)OC(C)(C)Cc1ccccc1 [1,1-DIMETHYL-2-PHENYLETHYL ACETATE] | 198.02 | TOP (perfuming compounds having a volatility ranging from 70,000 to 100 μg/l in air are referred to as “top notes”) | –
18 | CCCCCCC(=O)OCC [ethyl heptanoate] | 3052.89 | TOP (perfuming compounds having a volatility ranging from 70,000 to 100 μg/l in air are referred to as “top notes”) | –
19 | CCOC(=O)C1=C(C)C=CCC1(C)C | 368.81 | TOP (perfuming compounds having a volatility ranging from 70,000 to 100 μg/l in air are referred to as “top notes”) | –
20 | CC(C)CC(=O)O [3-METHYLBUTANOIC ACID] | – | – | Odor Threshold ([2]; Table 10, woody note): 2.23E−04 μg/l air

Row | Compound | Volatility [1, 3] [μg/l air] | Type [1, 4] | further results
21 | CC(=O)OCc1ccccc1 [benzyl acetate] | 507.38 | TOP (perfuming compounds having a volatility ranging from 70,000 to 100 μg/l in air are referred to as “top notes”) | –
22 | CCCCCC(C)=O [2-HEPTANONE] | 26409.73 | TOP (perfuming compounds having a volatility ranging from 70,000 to 100 μg/l in air are referred to as “top notes”) | –
23 | CCCOC(=O)[C@H](C)OC(C)(C)CC | 995.16 | TOP (perfuming compounds having a volatility ranging from 70,000 to 100 μg/l in air are referred to as “top notes”) | –
24 | CCOc1cc(C=O)ccc1O [3-ethoxy-4-hydroxybenzaldehyde] | – | – | Volatility [1, 7]: 0.11 μg/l air; Type [1, 9]: Bottom
25 | C=CC(=C)CCC=C(C)C | 15094.56 | TOP (perfuming compounds having a volatility ranging from 70,000 to 100 μg/l in air are referred to as “top notes”) | –
26 | C=CCOC(=O)CCCCC [ALLYL HEXANOATE] | 941.49 | TOP (perfuming compounds having a volatility ranging from 70,000 to 100 μg/l in air are referred to as “top notes”) | –
27 | CCC(=O)CC(C)CC (stereo not drawn) [5-METHYL-3-HEPTANONE] | 14141.42 | TOP (perfuming compounds having a volatility ranging from 70,000 to 100 μg/l in air are referred to as “top notes”) | –
28 | O=Cc1ccccc1 [BENZALDEHYDE] | – | – | Volatility [1, 7]: 8207.00 μg/l air; Type [1, 9]: Top; Type [1, 5]: Top; Volatility (μg/l air) [1, 6]: 8207.00 μg/l air
29 | CCCCCC(=O)CC [3-OCTANONE] | 6787.60 | TOP (perfuming compounds having a volatility ranging from 70,000 to 100 μg/l in air are referred to as “top notes”) | –
30 | CCCc1ccc(OC)cc1 [1-METHOXY-4-PROPYLBENZENE] | 629.29 | TOP (perfuming compounds having a volatility ranging from 70,000 to 100 μg/l in air are referred to as “top notes”) | –
31 | C/C=C(\C)C(=O)OCC/C=C\CC | – | – | Type [1, 5]: Top; Volatility (μg/l air) [1, 6]: 168.78 μg/l air
32 | COc1ccc2ccccc2c1 [2-METHOXYNAPHTHALENE] | – | – | Odor Threshold [2, 7]: 1.02E−05 μg/l air; Odor Value [2, 7]: 5.00E+06; Odor Threshold ([2]; Table 9, gourmand note): 1.02E−05 μg/l air
33 | CC1CCC(=O)O1 (racemic) [(+−)-4-PENTANOLIDE] | 2355.15 | TOP (perfuming compounds having a volatility ranging from 70,000 to 100 μg/l in air are referred to as “top notes”) | Volatility (μg/l air) ([1]; Table 7, citrus note): 2355.15 μg/l air; Type [1, 8]: Top
34 | CCOC(=O)C(C)C [ETHYL ISOBUTYRATE] | 132964.09 | TOP (perfuming compounds having a volatility ranging from 70,000 to 100 μg/l in air are referred to as “top notes”) | –
35 | Cc1ccc(OC(=O)C(C)C)cc1 [4-METHYLPHENYL ISOBUTYRATE] | 167.81 | TOP (perfuming compounds having a volatility ranging from 70,000 to 100 μg/l in air are referred to as “top notes”) | –
36 | CC(C)(C)Cc1cccnc1 [3-(2,2-DIMETHYLPROPYL)PYRIDINE] | 516.21 | TOP (perfuming compounds having a volatility ranging from 70,000 to 100 μg/l in air are referred to as “top notes”) | –
37 | COC(=O)C=C1CCCC1 [methyl cyclopentylideneacetate] | 1091.46 | TOP (perfuming compounds having a volatility ranging from 70,000 to 100 μg/l in air are referred to as “top notes”) | –
38 | CCOC(=O)c1ccccc1 [ETHYL BENZOATE] | 1285.12 | TOP (perfuming compounds having a volatility ranging from 70,000 to 100 μg/l in air are referred to as “top notes”) | –
39 | CC(C)=CCC/C(C)=C\CO | – | – | Volatility (μg/l air) ([1]; Table 7, citrus note): 86.02 μg/l air; Type [1, 8]: Middle
40 | CC/C=C\CCCCCO [(Z)-6-NONEN-1-OL] | – | – | Volatility (μg/l air) ([1]; Table 4, watery note): 6.91 μg/l air; Type ([1]; Table 4, watery note, top, middle or bottom note): bottom (perfuming compounds having a volatility ranging from 49 to 0.1 μg/l in air are referred to as “bottom notes”); Type [1, 5]: Bottom; Volatility (μg/l air) [1, 6]: 6.91 μg/l air
